4 compounds from US20250354117A1, “METHODS OF GENERATING NATURAL KILLER CELLS FROM PLURIPOTENT STEM CELLS AND COMPOSITIONS THEREOF” (THE CHILDREN'S MEDICAL CENTER CORPORATION, priority 2022, published 2025) can be followed below.

Series [1] has as its system CD34+ umbilical cord blood HSPCs. Nature of the series: UNC0642 treatment during T cell differentiation, flow cytometry. In kind it is cell-based, human. The following applies: continuous treatment 10, 50, 100, 500 nM; 28 days of differentiation; vs DMSO control. The text has this:
Error bars represent the standard deviation across n=3 independent differentiations per dose of UNC0642. *=p<0.05 compared to the DMSO control using a two-tailed Wilcoxon sum-rank test.
Error bars represent standard deviation. N=3 independent differentiation replicates per dose of UNC0642.
CD34+ umbilical cord blood cells (AllCells) were thawed from liquid nitrogen storage and T cell differentiation was immediately initiated with a StemSpan T cell Generation Kit (Stem Cell Technologies, 09940), as described above. Cells were treated with UNC0642 (Cayman Chemical, 14604) over the entire duration of the differentiation and fresh compound was supplemented every 3-4 days to the media. A range of doses were tested (10 nM, 50 nM, 100 nM, and 500 nM) alongside a 0.5% DMSO vehicle control with n=3 replicate differentiations per condition. Cells were collected after 28 days of differentiation to assess NK and T cell populations by flow cytometry.

Series [2] concerns FKBP12^F36V tagged TRIM28. Description: Western-blot for TRIM28 on dTAG knockin iPS clones. In kind it is cell-based, human. The following applies: 500 nM, 24 hours, four iPS clones, vs DMSO. As to the method: FIG. 35A-35F examines rapid and selective degradation of endogenous TRIM28 in human iPS cells. […] An mNeon-FKBP12^F36V open reading frame DNA sequence was knocked into the TRIM28 locus (SEQ ID NO: 32) to tag the N-terminus of TRIM28 and thus create an mNeon-FKBP12^F36V-TRIM28 fusion protein. The knockin was achieved through CRISPR/Cas9-mediated HDR (gRNA, SEQ ID: 31) where the knockin cassette was delivered to cells in an rAAV6 vector. FIG. 35B examines bulk knockin efficiency was assessed with flow cytometry for mNeon five days after simultaneous CRISPR/Cas9 RNP nucleofection and rAAV6 infection of iPS cells (MOI: 50,000 viral genomes/cells). […] The wild-type, unedited locus results in an amplicon of 1,204 bp and the knockin locus generates an amplicon of 2,371 bp. (*) denotes biallelic knockin clones. FIG. 35D analyzes microscopy for DAPI and mNeon on a biallelic knockin iPS clone to visualize nuclear localization of mNeon signal, consistent with the known nuclear localization of endogenous TRIM28 proteins. FIG. 35E examines titration of degrader molecules (dTAG-13 and dTAG^V-1) on a biallelic knockin iPS clone, assayed by flow cytometry for mNeon as a quantitative proxy for TRIM28 protein expression.

For series [3], the system named is CD34+ umbilical cord blood HSPCs. Description: In vitro T cell differentiation (Notch-based, stroma-free) of CRISPR/Cas9 RNP-edited HSPCs, flow cytometry. The following applies: six weeks of in vitro differentiation, Cas9 RNP knockout of EHMT1, n=3; for CD56+CD3− natural killer (NK) cells (fractional abundance within CD45+DAPI− population): AAVS1-targeting gRNA control: 1.2±0.45%; for CD56−CD3+ T cells (fractional abundance within CD45+DAPI− population): AAVS1-targeting gRNA control: 38.7±12.5%. Further details: species or system human. As to the method:
Genetic knockouts of select genes were generated in primary hematopoietic stem and progenitor cells (HSPCs) via nucleofection of CRISPR/Cas9 ribonucleoproteins (RNPs). Two independent knockouts were generated for each gene using separate gRNAs and knockouts were replicated across two different donor pools of human umbilical cord blood. First, CD34+ cord blood cells (AllCells) were thawed via dropwise addition of RPMI 1640+10% FBS. Cells were centrifuged at 200 g for 8 minutes and subsequently washed with FACS buffer (PBS+2% FBS). Cells were cultured for 48 hours prior to nucleofection at a density of 250,000 cells/mL in SFEM II™ media (StemCell Technologies) supplemented with 100 ng/mL SCF, TPO, FLT3L, and IL-6 (Peprotech) within a 5% O2, 5% CO2, 37° C. incubator. Next, the top two protospacer sequences for each desired gene were selected from the Brunello genome-wide knockout library (Broad Institute) based on the Rule Set 2 score. A control gRNA targeting the AAVS1 locus was designed in Benchling™. All gRNA sequences were synthesized by IDT as an Alt-R CRISPR/Cas9 sgRNA. RNPs were complexed by incubating 105 pmol of Cas9 protein (IDT) with 125 pmol of sgRNA in a 5 uL total volume for 10 minutes at room temperature. CD34+ cord blood HSPCs were washed with FACS buffer and 125,000 cells were resuspended in 20 μL of P3 Primary Cell Nucleofection Solution (Lonza) per nucleofection. RNPs were nucleofected into HSPCs with 3.85 uM electroporation enhancer (IDT) using a 16-reaction nucleovette on a Lonza 4D-Nucleofector (program DZ-100). Cells were cultured for 36-48 hours at 5% O2, 5% CO2 in 96-well U-bottom plates (Corning) then subsequently harvested for genomic DNA extraction and initiation of in vitro differentiation assays.
Following 36-48 hours post-nucleofection of Cas9 RNPs, 5,000 cord blood HSPCs were differentiated to T cell lineages using the StemSpan™ T cell Generation Kit (Stem Cell Technologies) per the manufacturer's instructions with n=3 replicate differentiations per gRNA. Total viable cell counts were performed on Day 14, 28 and 42 of differentiation. T cell development was assessed by flow cytometry on days 14 and 42 of differentiation to assess lymphoid progenitors (CD45, CD5 and CD7) and mature T cells (CD45, CD4, CD8, CD3, CD56, CD5 and CD7), respectively. Cells were stained with propidium iodide as a viability marker and the following antibodies for flow cytometry: CD45 APC-Cy7 (557833, BD Biosciences), CD4 PE-Cy5 (IM2636U, Beckman Coulter Immunotech), CD8-BV421 (RPA-T8, BD Horizon), CD5-BV510 (UCHT2, BD Biosciences), CD3-PE-Cy7 (UCHT1, BD Pharmigen), CD7-PE (555361, BD Pharmigen), CD56 FITC (BD Pharmigen). […]

“Also recorded” adds a separate entry of the source.

With `COc1cc2c(NC3CCN(C(C)C)CC3)nc(N3CCC(F)(F)CC3)nc2cc1OCCCN1CCCC1` [UNC0642], the “proportion of CD56+CD3− NK cells and CD56−CD3+ T cells” value in series [1] was “dose-dependent acquisition of NK cells; also recorded: dose-dependent phenocopy of the EHMT1 CRISPR/Cas9 knockout”.

As to `CC[C@H](C(=O)N1CCCC[C@H]1C(=O)O[C@H](CCc1ccc(OC)c(OC)c1)c1ccccc1OCC(=O)NCCCCCCC(=O)N[C@H](C(=O)N1C[C@H](O)C[C@H]1C(=O)N[C@@H](C)c1ccc(-c2scnc2C)cc1)C(C)(C)C)c1cc(OC)c(OC)c(OC)c1` [dTAG^V-1], the TRIM28 protein degradation result in series [2] is listed as “near-complete degradation”.

Consider “EHMT1 gRNA01: SEQ ID NO: 5, GGGCCGGTGCACAAACAGCG; Alt-R CRISPR/Cas9 sgRNA delivered as Cas9 RNP (guide GGGCCGGUGCACAAACAGCG; IDT Alt-R synthetic sgRNA, modifications not given here)”, for which, in series [3], the “CD56+CD3− natural killer (NK) cells (fractional abundance within CD45+DAPI− population)” value came to 35.4±5.7% and the “CD56−CD3+ T cells (fractional abundance within CD45+DAPI− population)” value was determined as 13.9±1.8%.

For the compound “EHMT1 gRNA02: SEQ ID NO: 6, TTCGGCTGCTTCCATCAACG; Alt-R CRISPR/Cas9 sgRNA delivered as Cas9 RNP (guide UUCGGCUGCUUCCAUCAACG; IDT Alt-R synthetic sgRNA, modifications not given here)”, in series [3], the “CD56+CD3− natural killer (NK) cells (fractional abundance within CD45+DAPI− population)” value came out at 58.7±4.9% and the “CD56−CD3+ T cells (fractional abundance within CD45+DAPI− population)” value came to 6.6±0.69%.
